{"source": "patent US4477465A", "about": "“Substituted 4,10-dihydro-10-oxothieno benzoxepins” (Hoechst-Roussel Pharmaceuticals Inc., priority 1983, dated 1984)", "key": {"[1]": {"system": "2-phenyl-1,4-benzoquinone-induced writhing", "assay": "2-phenyl-1,4-benzoquinone-induced writhing test in mice (analgesia)", "type": "in vivo", "settings": "Mus musculus, po"}, "[2]": {"system": "carrageenin induced rat paw edema", "assay": "carrageenin induced rat paw edema antiinflammatory assay", "type": "in vivo", "settings": "for Carrageenin Paw Edema %: dose 20 mg/kg (p.o.), rat", "text": "The compounds of the present invention are useful as antiinflammatory agents due to their ability to suppress inflammation in mammals. […] Exptl. Biol. Med., III 544 (1962), J. Pharmacol. Exp., 141 (1963)]."}, "[3]": {"settings": "mice, read-out: Phenylquinone Writhing ED50 Orally (p.o.)"}}, "note": "Like-named read-outs stand apart in the source and are kept apart here.", "data": [{"compound": "CC1(C)COC(Cc2ccc3c(c2)C(=O)c2sccc2CO3)=N1", "note": "[2-(4,10-Dihydro-10-oxothieno[3,2-c][1]benzoxepin-8-yl)methyl-4,4-dimethyl-oxazoline]", "values": [{"measurement": "ED50", "setting": "[1]; [3]", "result": 7.22, "unit": "mg/kg"}, {"measurement": "Carrageenin Paw Edema %", "setting": "[2]", "result": 49, "unit": "%"}]}, {"compound": "COC(=O)COC(=O)Cc1ccc2c(c1)C(=O)c1sccc1CO2", "note": "[Methyl (4,10-dihydro-10-oxothieno[3,2-c][1]benzoxepin-8-yl) acetoxyacetate]", "values": [{"measurement": "ED50", "setting": "[1]; [3]", "result": 1.53, "unit": "mg/kg"}, {"measurement": "Carrageenin Paw Edema %", "setting": "[2]", "result": 43, "unit": "%"}]}, {"compound": "COc1ccc2c(c1)c(CC(=O)O)c(C)n2C(=O)c1ccc(Cl)cc1", "note": "[indomethacin, reference compound]", "values": [{"measurement": "ED50", "setting": "[1]; read-out: analgesic activity ED50", "result": 0.7, "unit": "mg/kg"}]}, {"compound": "CCCCC1C(=O)N(c2ccccc2)N(c2ccccc2)C1=O", "note": "[phenylbutazone, reference compound]", "values": [{"measurement": "inhibition of edema", "setting": "[2]; dose 50 mg/kg (p.o.), in a similar test", "result": 50, "unit": "%"}]}]}
